# “Also recorded” adds a separate entry of the source.
# Test system: patient, diagnosed with an autism spectrum disorder
# Experiment: Case treatment of a patient with autism spectrum disorder with oral MSM and/or DMSO
# Format: in vivo
# Method: A patient, diagnosed with an autism spectrum disorder, was treated with a combination of MSM and DMSO, beginning. […] In some embodiments, combination of MSM and DMSO unexpectedly improve one or more symptoms associated with autism, as compared to administration of MSM or DMSO individually. In several embodiments, in addition to the beneficial therapeutic effects, the combination of MSM and DMSO reduces one or more of the side effects typically associated with DMSO administration (e.g., odor, gastrointestinal distress). In some embodiments, these unexpected effects are the result of the continued (e.g., daily) administration of MSM/DMSO, while in other embodiments, these effects are long-term (e.g., persist beyond the period of continued administration of MSM/DMSO). Moreover, in certain embodiments, combinations of MSM and DMSO result in synergistic therapeutic effects for one or more of the symptoms of autism. In some embodiments, these synergistic effects are the result of the continued (e.g., daily) administration of MSM/DMSO, while in other embodiments, these effects are long-term (e.g., persist beyond the period of continued administration of MSM/DMSO).
# The patient's symptoms include stimming, nighttime stimming, hyperactive gag reflex, impaired social interaction, a lack of vocalization and communication, delayed success with toilet training, and constipation. DMSO/MSM treatment was initiated for patient. The patient was treated with 4.7 grams of oral MSM solution daily (4½ teaspoons daily of a 15% solution). […] The patient was also treated with 4.7 grams of MSM and 0.025 grams of DMSO in an oral solution (4½ teaspoons daily of 15% MSM and 0.1% DMSO).
# The patient was also treated with two short term bolus treatments with increased amounts of DMSO. In addition to the 4.7 g of MSM and 0.025 g of DMSO in an oral solution, the patient received an additional 4.8 g/day of DMSO for a short duration of 10 days (1 teaspoon, 90% oral solution). […] The patient's chronic constipation was also eliminated during these treatment cycles of higher doses of DMSO.
# The patient was further treated with an oral formulation comprising 4.7 g of MSM and […] of DMSO. Improvements in communication, social interaction, and constipation continued at this dosage.
# [1] = additional 4.8 g/day DMSO (90% oral solution) for 10 days on top of 4.7 g MSM and 0.025 g DMSO
# [2] = after one month of 4.7 g MSM daily
Structure (SMILES),ability to vocalize [1],chronic constipation [1],different words vocalized during a session (larger dose of DMSO for 10 days in addition to normal treatment),frequency of nightly stimming (4.7 g MSM daily (15% solution)),time until improvement of stimming was noted (4.7 g MSM daily (15% solution)) [weeks],reduction of daytime stimming (4.7 g oral MSM daily (15% solution)),"incidents of hyperactive gag reflex (4.7 g oral MSM daily (15% solution), within 12 weeks)","reduction of stimming (especially night-time stimming) (4.7 g oral MSM daily (15% solution, 4½ teaspoons), within 12 weeks)",signs known [2],time engaged in an activity [2] [min],vocalization [2]
"C[S+](C)[O-] [DMSO, Dimethyl sulfoxide]",improved dramatically,eliminated; also recorded: vastly improved,six,–,–,–,–,–,–,–,–
"CS(C)(=O)=O [MSM, Methylsulfonylmethane]",–,–,–,reduced from every night to once every two or three weeks,≤ 12,about 80%,reduced from multiple times per day to only a few times per month,about 90%,gained an additional sign,8 to 10,became more vocal

# — US20230095199A1, “DIMETHYL SULFOXIDE (DMSO) FORMULATIONS FOR TREATING AUTISM” (Abela Pharmaceuticals, Inc., priority 2010, published 2023)
